{"source": "paper PMC5618418", "about": "“Pharmacokinetics of Jaspine B and Enhancement of Intestinal Absorption of Jaspine B in the Presence of Bile Acid in Rats” (Marine Drugs, 2017)", "key": {"[1]": {"test": "Pharmacokinetics after intravenous injection (plasma, bile, urine)", "assay_type": "in vivo, rat", "details": "for half-life: iv, 10 mg/kg", "method": "(§1) Male SD rats (aged 8–9 weeks, weighing 250–300 g) were obtained from Samtako Bio Korea, Inc. (Osan, Korea). The rats were acclimatized for 1 week in a temperature-controlled room (23 ± 2 °C) with a 12-h illumination cycle. Food and water were given ad libitum. All animal procedures were approved by the Animal Care and Use Committee of the Kyungpook National University (No. 2015-0064). The rats were fasted for at least 12 h before the oral administration of drugs.\n(§2) The femoral artery, femoral vein, and bile duct were cannulated with polyethylene tubes (PE-50 and PE-10; Jungdo, Seoul, Korea) under light anesthesia with isoflurane.\nFor intravenous (IV) dosing, Jaspine B was dissolved in a vehicle containing DMSO: PEG400: saline (2:4:4, v/v/v) and was IV-injected via the femoral vein at 10 mg/kg (vehicle volume, 1 mL/kg). Blood samples were collected from the femoral artery at 0, 0.083, 0.167, 0.25, 0.5, 1, 2, 4, 6, 8, and 12 h following the IV administration of Jaspine B. Bile and urine samples were collected every 2 h for a total of 12 h. After centrifugation of blood samples at 13,200 rpm for 10 min, aliquots of 50 μL of plasma, bile, and urine were stored at −80 °C until the analysis of Jaspine B.\nAliquots (50 μL) of plasma, bile, feces homogenates, and urine samples were added to 250 μL of acetonitrile containing 0.5 ng/mL of berberine (an internal standard). After vortexing for 10 min and centrifugation at 13,200 rpm for 5 min, an aliquot (2 μL) of the supernatant was injected directly into the LC-MS/MS system. For the analysis of plasma concentration, the standard curve range was 25–5000 ng/mL and the concentrations of quality control (QC) samples were 75, 500, and 3000 ng/mL, as described previously. Concentrations of Jaspine B in urine, bile, and feces homogenates were 5–300 ng/mL, 20–5000 ng/mL, and 20–5000 ng/mL, respectively. The concentrations of QC samples were 15, 100, and 300 ng/mL for urine samples and 75, 500, and 3000 ng/mL for bile and feces homogenates.\n(§3) Pharmacokinetic parameters were determined using a non-compartmental analysis (WinNonlin® 2.0; Pharsight, Mountain View, CA, USA). Maximum plasma concentration (Cmax) and time to reach Cmax (Tmax) values were obtained from plasma concentration-time curves. The area under the plasma concentration–time curve from zero to infinity (AUC) was calculated using the trapezoidal-extrapolation method. For extrapolation, the area from the last data point to infinity was estimated by dividing the […].\nTotal systemic clearance (CLtotal) was calculated by dividing IV dose by plasma AUC and the apparent volume of distribution at steady-state (Vss) was calculated by multiplying mean residence time (MRT) by CLtotal."}, "[2]": {"system": "MCF-7", "parameters": "method as in doi:10.5352/JLS.2016.26.12.1392", "details": "MCF-7 breast cancer cells; cited from earlier work"}, "[3]": {"system": "786-O", "parameters": "method as in doi:10.5352/JLS.2016.26.12.1392", "details": "786-O renal carcinoma; cited from earlier work"}, "[4]": {"test": "Pharmacokinetics after oral administration with or without taurocholate in control and bile-depleted rats", "assay_type": "in vivo", "details": "male, rat, plasma, 30 mg/kg; for bioavailability: oral 30 mg/kg vs IV 10 mg/kg, read-out: BA (oral bioavailability); for AUC(0-inf) / MRT / Tmax / half-life / AUC(0-t) / Cmax: oral 30 mg/kg; for AUC(0-t): read-out: AUC12h", "method": "as §1, §2\nFor oral dosing, Jaspine B was dissolved in a vehicle containing DMSO: PEG400: saline (2:4:4, v/v/v) and was administered by oral gavages at a single dose of 30 mg/kg of Jaspine B concomitantly with or without 60 mg/kg TC (vehicle volume, 3 mL/kg) to the control and bile-depleted rats. Bile depletion was accomplished with 4 h drainage of bile through the bile cannula, which was cannulated to the bile duct using PE-10 tubing.\nBlood samples (approximately 250 μL each) were collected from the femoral artery at 0, 0.25, 0.5, 1, 1.5, 2, 4, 8, and 12 h following the oral administration of Jaspine B. After centrifugation of blood samples at 13,200 rpm for 10 min, plasma samples (50 μL) were collected and stored at −80 °C until the analysis by liquid chromatography tandem-mass spectrometry (LC-MS/MS). Aliquots (50 μL) of plasma samples were added to 250 μL of acetonitrile containing 0.5 ng/mL of berberine (an internal standard). After vortexing for 10 min and centrifugation at 13,200 rpm for 5 min, an aliquot (10 μL) of the supernatant was injected directly into the LC-MS/MS system. The standard curve range was 5–2000 ng/mL and the concentrations of quality control (QC) samples were 60, 300, and 2000 ng/mL.\nas §3\nHowever, in the case of bile-depleted rats, AUC∞ and T1/2 were not calculated because the elimination rate constant could not be obtained."}, "[5]": {"system": "metastatic melanoma cell growth in the lungs", "parameters": "method as in PMID 22451302", "details": "mice, intravenous (equivalent to 6.7 mg/kg) on 4th, 8th, 12th day, read on day 14; cited from earlier work"}, "[6]": {"system": "HepG2", "parameters": "method as in doi:10.5352/JLS.2016.26.12.1392", "details": "HepG2 hepatoma; cited from earlier work"}, "[7]": {"details": "male, Sprague-Dawley, rat plasma, IV 10 mg/kg"}, "[8]": {"details": "SD, bile depletion + TC 60 mg/kg"}}, "note": "Where two headings read alike, the source gives them in different places."}
{"smiles": "CCCCCCCCCCCCCC[C@@H]1OC[C@H](N)[C@@H]1O", "note": "[Jaspine B]", "values": [{"measurement": "clearance", "setting": "[1]; male, Sprague-Dawley, plasma, rat, IV 10 mg/kg, read-out: CLtotal", "result": "98.3 ± 7.7", "unit": "mL/min/kg"}, {"measurement": "Vd", "setting": "[1]; male, Sprague-Dawley, plasma, rat, IV 10 mg/kg, read-out: Vss", "result": "21.2 ± 2.6", "unit": "L/kg"}, {"measurement": "half-life", "setting": "[1]; male, Sprague-Dawley, rat, plasma, rat plasma, distribution phase, read-out: distribution half-life (converted)", "result": 1.4, "unit": "h"}, {"measurement": "half-life", "setting": "[1]; male, Sprague-Dawley, rat, plasma, rat plasma, read-out: T1/2 (terminal half-life) (converted)", "result": "6.7 ± 1.6", "unit": "h"}, {"measurement": "AUC(0-inf)", "setting": "[1]; [7]", "result": "1700 ± 137", "unit": "ng·h/mL"}, {"measurement": "MRT", "setting": "[1]; [7]", "result": "3.6 ± 0.5", "unit": "h"}, {"measurement": "AUC(0-t)", "setting": "[1]; male, Sprague-Dawley, rat plasma, IV 10 mg/kg, read-out: AUC12h", "result": "1290 ± 166", "unit": "ng·h/mL"}, {"measurement": "Xbile", "setting": "[1]; rat bile, IV 10 mg/kg, 0-12 h", "result": "2.4 ± 0.8 % of dose"}, {"measurement": "Xurine", "setting": "[1]; rat urine, IV 10 mg/kg, 0-12 h", "result": "0.4 ± 0.2 % of dose"}, {"measurement": "CLbile", "setting": "[1]; rat, IV 10 mg/kg", "result": "3.1 ± 0.6", "unit": "mL/min/kg"}, {"measurement": "CLurine", "setting": "[1]; rat, IV 10 mg/kg", "result": "0.5 ± 0.3", "unit": "mL/min/kg"}, {"measurement": "contribution of CLbile and CLurine to CLtotal", "setting": "[1]; rat, IV 10 mg/kg", "result": "about 4%"}, {"measurement": "IC50", "setting": "[2]", "result": 2.31, "unit": "µM"}, {"measurement": "IC50", "setting": "[3]", "result": 29.4, "unit": "µM"}, {"measurement": "bioavailability", "setting": "[4]; [8]", "result": 23.5, "unit": "%"}, {"measurement": "bioavailability", "setting": "[4]; SD, bile-depleted rats, from AUC12h", "result": 1.6, "unit": "%"}, {"measurement": "bioavailability", "setting": "[4]; SD, control + TC 60 mg/kg", "result": 41.2, "unit": "%"}, {"measurement": "bioavailability", "setting": "[4]; SD, control rats", "result": 6.2, "unit": "%"}, {"measurement": "AUC(0-inf)", "setting": "[4]; [8]", "result": "1200 ± 254", "unit": "ng·h/mL"}, {"measurement": "MRT", "setting": "[4]; [8]", "result": "4.9 ± 0.5", "unit": "h"}, {"measurement": "Tmax", "setting": "[4]; [8]", "result": "1 ± 0.5", "unit": "h"}, {"measurement": "half-life", "setting": "[4]; [8]", "result": "7.2 ± 1.5", "unit": "h"}, {"measurement": "AUC(0-t)", "setting": "[4]; [8]", "result": "828 ± 180", "unit": "ng·h/mL"}, {"measurement": "MRT", "setting": "[4]; SD, bile-depleted rats", "result": "6.1 ± 0.3", "unit": "h"}, {"measurement": "Tmax", "setting": "[4]; SD, bile-depleted rats", "result": "9.3 ± 2.3", "unit": "h"}, {"measurement": "AUC(0-t)", "setting": "[4]; SD, bile-depleted rats", "result": "80.3 ± 42.7", "unit": "ng·h/mL"}, {"measurement": "AUC(0-inf)", "setting": "[4]; SD, control + TC 60 mg/kg", "result": "2100 ± 419", "unit": "ng·h/mL"}, {"measurement": "Cmax", "setting": "[4]; SD, control + TC 60 mg/kg", "result": "174 ± 13", "unit": "ng/mL"}, {"measurement": "MRT", "setting": "[4]; SD, control + TC 60 mg/kg", "result": "5.5 ± 0.03", "unit": "h"}, {"measurement": "Tmax", "setting": "[4]; SD, control + TC 60 mg/kg", "result": "3.3 ± 2.3", "unit": "h"}, {"measurement": "half-life", "setting": "[4]; SD, control + TC 60 mg/kg", "result": "6.4 ± 2.8", "unit": "h"}, {"measurement": "AUC(0-t)", "setting": "[4]; SD, control + TC 60 mg/kg", "result": "1406 ± 4.3", "unit": "ng·h/mL"}, {"measurement": "AUC(0-inf)", "setting": "[4]; SD, control rats", "result": "314 ± 76.1", "unit": "ng·h/mL"}, {"measurement": "MRT", "setting": "[4]; SD, control rats", "result": "4.9 ± 0.4", "unit": "h"}, {"measurement": "Tmax", "setting": "[4]; SD, control rats", "result": "2.5 ± 1.3", "unit": "h"}, {"measurement": "half-life", "setting": "[4]; SD, control rats", "result": "5.5 ± 1.1", "unit": "h"}, {"measurement": "AUC(0-t)", "setting": "[4]; SD, control rats", "result": "241 ± 57.8", "unit": "ng·h/mL"}, {"measurement": "Cmax", "setting": "[4]; Sprague-Dawley, bile depletion + TC 60 mg/kg", "result": "163 ± 28.4", "unit": "ng/mL"}, {"measurement": "Cmax", "setting": "[4]; Sprague-Dawley, bile-depleted rats", "result": "8.5 ± 2.8", "unit": "ng/mL"}, {"measurement": "Cmax", "setting": "[4]; Sprague-Dawley, control rats", "result": "36.3 ± 11.3", "unit": "ng/mL"}, {"measurement": "metastatic melanoma cell growth in the lungs", "setting": "[5]", "result": "dramatically decreased"}, {"measurement": "IC50", "setting": "[6]", "result": 5.69, "unit": "µM"}]}
